US6492391B1, “Crystal modification d of 8-cyano-1-cyclopropyl-7-(1s, 6s- 2,8-diazabicyclo-[4.3.0]nonan-8-yl)-6-fluoro-1,4- dihydro-4-oxo-3-quinolinecarboxylic acid” (Bayer Aktiengesellschaft, priority 1999, dated 2002)

Columns and labels:
[1] = storage stability of the crystal modification; format: physicochemical; conditions: prolonged storage; solid state
From the text: For these reasons, it is highly suitable for preparing tablets or other solid formulations. Owing to its stability, it gives these formulations the desired long-lasting storage stability. Using the crystal modification D, it is therefore possible to prepare, in a defined and targeted manner, stable solid preparations of CCDC.

pathogenic bacteria = test: activity against pathogenic bacteria; conditions: human or veterinary medicine
From the text: Its broad area of use corresponds to that of CCDC.

[2] = hygroscopicity of the solid; format: physicochemical; conditions: powder obtained by the prior-art preparation process
From the text: The partially amorphous powder which is obtained by the preparation process outlined above is furthermore hygroscopic. However, amorphous solids, and in particular hygroscopic solids, are difficult to handle when being processed pharmaceutically since, for example, they have low bulk densities and unsatisfactory flow properties. Moreover, the handling of hygroscopic solids requires special work techniques and apparatuses to obtain reproducible results, for example with respect to the active compound content or the stability of the solid formulations produced.

## N#Cc1c(N2C[C@@H]3CCCN[C@@H]3C2)c(F)cc2c(=O)c(C(=O)O)cn(C3CC3)c12 [CCDC of the crystal modification D, 8-cyano-1-cyclopropyl-7-(1S,6S-2,8-diazabicyclo[4.3.0]nonan-8-yl)-6-fluoro-1,4-dihydro-4-oxo-3-quinolinecarboxylic acid]
[1]
  stability of the crystal modification on storage: surprisingly stable and does not change into another crystal modification or the amorphous form, even on prolonged storage
Pathogenic bacteria
  activity against pathogenic bacteria: highly active

## N#Cc1c(N2C[C@@H]3CCCN[C@@H]3C2)c(F)cc2c(=O)c(C(=O)O)cn(C3CC3)c12 [partially amorphous powder, 8-cyano-1-cyclopropyl-7-(1S,6S-2,8-diazabicyclo[4.3.0]nonan-8-yl)-6-fluoro-1,4-dihydro-4-oxo-3-quinolinecarboxylic acid]
[2]
  hygroscopicity: hygroscopic
